Measured values taken from PMC7116141 (Journal of the American Chemical Society, 2006).

Molecular target: T1, human OGA (hOGA, O-GlcNAcase) (Homo sapiens, UniProt O60502)
T1 sequence (O60502 1-916): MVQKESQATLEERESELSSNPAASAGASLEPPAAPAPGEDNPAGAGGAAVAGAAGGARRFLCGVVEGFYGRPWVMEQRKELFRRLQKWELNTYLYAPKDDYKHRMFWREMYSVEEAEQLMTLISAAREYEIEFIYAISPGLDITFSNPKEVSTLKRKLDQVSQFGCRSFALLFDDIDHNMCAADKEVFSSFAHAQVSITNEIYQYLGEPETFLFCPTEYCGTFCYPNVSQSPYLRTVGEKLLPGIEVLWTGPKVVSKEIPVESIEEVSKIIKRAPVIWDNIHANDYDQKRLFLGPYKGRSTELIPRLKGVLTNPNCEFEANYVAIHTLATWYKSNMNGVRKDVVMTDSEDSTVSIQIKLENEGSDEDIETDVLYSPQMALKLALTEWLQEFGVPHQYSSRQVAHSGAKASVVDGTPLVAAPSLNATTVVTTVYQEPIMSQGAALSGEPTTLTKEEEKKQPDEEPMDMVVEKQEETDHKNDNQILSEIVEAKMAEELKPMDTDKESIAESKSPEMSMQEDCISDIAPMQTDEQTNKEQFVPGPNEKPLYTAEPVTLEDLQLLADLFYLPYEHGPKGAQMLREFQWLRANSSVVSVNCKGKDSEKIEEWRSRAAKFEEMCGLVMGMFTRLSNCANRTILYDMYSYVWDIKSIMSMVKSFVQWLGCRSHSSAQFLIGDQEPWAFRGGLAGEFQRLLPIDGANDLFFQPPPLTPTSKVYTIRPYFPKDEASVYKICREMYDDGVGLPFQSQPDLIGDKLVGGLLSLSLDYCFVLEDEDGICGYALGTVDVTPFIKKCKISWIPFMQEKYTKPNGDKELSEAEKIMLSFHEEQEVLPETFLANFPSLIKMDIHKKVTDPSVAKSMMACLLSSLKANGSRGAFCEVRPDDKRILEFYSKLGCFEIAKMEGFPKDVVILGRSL
Experiment: anti-O-GlcNAc immunoblot of treated HEK […] cells
Assay type: cell-based

CC(C)C(=O)N[C@H]1c2nc(CCc3ccccc3)cn2[C@H](CO)[C@@H](O)[C@@H]1O [compound 1, GlcNAcstatin]
anti-O-GlcNAc immunoblot of treated HEK 293 cells (qualitative): is active against human OGA (hOGA) in human cell lines
